The values that follow come from patent publication US20240025863A1, “SOS1 PROTEIN DEGRADERS, PHARMACEUTICAL COMPOSITIONS THEREOF, AND THEIR THERAPEUTIC APPLICATIONS” (BioTheryX, Inc., priority 2020, published 2024).

What all share (assay type): cell-based
The subject of one test is H23 cells. The test is described as follows: Cell viability assay (CellTiter-Glo), H23 cells. The settings on record: Homo sapiens, NCI-H23, 72 h; H23 cells, 3 days incubation, CellTiter-Glo luminescence; read-out: Inhibition of Cancerous Cells IC50 H23. The protocol: (§1) H358, H23, SW48, and AsPC-1 cells were cultured in RPMI 1640 media supplemented with 10% fetal bovine serum, streptomycin, and penicillin. Lovo and SW480 cells were cultured in DMEM media supplemented with 10% fetal bovine serum, streptomycin, and penicillin. The cell lines were plated in their respective medium supplemented with 2.5% fetal bovine serum, streptomycin, and penicillin. All cell lines were plated in white walled 96-well plates at 2,000 cells/well or 384-well plates at 500 cells/well, except Lovo, which were plated at 4,000 or 1,000 cells/well, respectively. The cells were incubated in DMSO (control) or a compound for 3 days at 37° C. under 5% CO2. A CELLTITER-GLO® reagent (100 μL) was then added to each well. After a 10 min incubation with shaking, luminescence was measured using an ENVISION® multimode plate reader.
Background: In ATP-based viability assays light output follows the ATP content of the culture.

For the next test, the system named is H358 cells (G12C). Description: Cell viability assay (CellTiter-Glo), H358 cells. The settings on record: Homo sapiens, NCI-H358, 72 h; H358 cells, 3 days incubation, CellTiter-Glo luminescence; read-out: Inhibition of Cancerous Cells IC50 H358 (G12C). The method, boiled down: (§2)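 Viability is measured by CellTiter-Glo luminescence following a 3-day compound incubation at 37 °C in medium with 2.5% FBS.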

In a further test the test system is SW48 cells (wt). Description: Cell viability assay (CellTiter-Glo), SW48 cells. Particulars: Homo sapiens, 72 h; SW48 cells, 3 days incubation, CellTiter-Glo luminescence; read-out: Inhibition of Cancerous Cells IC50 SW48 (wt). A digest of the protocol: as §2
The next test deals with AsPC-1 cells (G12D). The test is described as follows: Cell viability assay (CellTiter-Glo), AsPC-1 cells. The settings on record: Homo sapiens, ASPC1, 72 h, 3 days incubation, CellTiter-Glo luminescence, read-out: Inhibition of Cancerous Cells IC50 AsPC-1 (G12D). On the procedure:
as §1

For another test, the system named is Lovo cells (G13D). Description: Cell viability assay (CellTiter-Glo), Lovo cells. Particulars: Homo sapiens, 72 h; Lovo cells, 3 days incubation, CellTiter-Glo luminescence; read-out: Inhibition of Cancerous Cells IC50 Lovo (G13D). A digest of the protocol:
as §2

The next test relates to SW480 cells (G12V). Description: Cell viability assay (CellTiter-Glo), SW480 cells. The settings on record: Homo sapiens, 72 h; SW480 cells, 3 days incubation, CellTiter-Glo luminescence; read-out: Inhibition of Cancerous Cells IC50 SW480 (G12V). A digest of the protocol:
as §2

Where only a bound is given, the exact number is not on record here.

As to `CNCc1ccccc1-c1csc([C@H](C)Nc2nc(C)nc3cc(OC)c(OC)cc23)c1` [reference compound], the IC50 (usually the concentration that gives 50% inhibition) with H23 cells stood at 2300 nM; in the test on H358 cells (G12C), 2400 nM.

For the compound `COc1cc2c(N[C@H](C)c3cccc(Br)c3)nc(C)nc2cc1OC1CCN(CCCCN2CCC(c3cc(F)cc4c3CN(C3CCC(=O)NC3=O)C4=O)CC2)CC1` (stereo partly drawn) [Compound A18, 3-(4-(1-(4-(4-((4-(((R)-1-(3-Bromophenyl)ethyl)amino)-6-methoxy-2-methyl-quinazolin-7-yl)oxy)piperidin-1-yl)butyl)piperidin-4-yl)-6-fluoro-1-oxoisoindolin-2-yl)-piperidine-2,6-dione], the concentration for half-maximal inhibition (IC50) stood at 2600 nM in the test with H23 cells and 3000 nM in the test on H358 cells (G12C).

In the case of `CNCc1ccccc1-c1csc([C@@H](C)Nc2nc(C)nc3cc(OCCCCCCCCC(=O)N[C@H](C(=O)N4C[C@H](O)C[C@H]4C(=O)NCc4ccc(-c5scnc5C)cc4)C(C)(C)C)c(OC)cc23)c1` [Compound D9, (2S,4R)-4-hydroxy-1-((S)-2-(9-((6-methoxy-2-methyl-4-(((R)-1-(4-(2-((methylamino)methyl)phenyl)thiophen-2-yl)ethyl)amino)quinazolin-7-yl)oxy)nonanamido)-3,3-dimethylbutanoyl)-N-(4-(4-methylthiazol-5-yl)benzyl)pyrrolidine-2-carboxamide], the IC50 with H23 cells came to 1000 nM; in the test with H358 cells (G12C) it was 970 nM.

For `CNCc1ccccc1-c1csc([C@@H](C)Nc2nc(C)nc3cc(OC)c(OC)cc23)c1` [reference compound], the concentration for half-maximal inhibition (IC50) with H23 cells was determined as 1500 nM; in the test on H358 cells (G12C), 2100 nM.

In the case of `COc1cc2nc(C)nc(N[C@H](C)c3cccc(Br)c3)c2cc1OCCCCCCCN1CCC(c2cc(F)cc3c2CN(C2CCC(=O)NC2=O)C3=O)CC1` (stereo partly drawn) [Compound A19, 3-(4-(1-(7-((4-(((R)-1-(3-Bromophenyl)ethyl)amino)-7-methoxy-2-methyl-quinazolin-6-yl)oxy)heptyl)piperidin-4-yl)-6-fluoro-1-oxoisoindolin-2-yl)piperidine-2,6-dione], the IC50 is 1900 nM with H23 cells and 1700 nM in the test with H358 cells (G12C).

In the case of `COc1cc2c(N[C@H](C)c3cccc(Br)c3)nc(C)nc2cc1OCCCCCCN1CCN(CCCc2cc3c(cc2F)C(=O)N(C2CCC(=O)NC2=O)C3)CC1` (stereo partly drawn) [Compound A42, 3-(5-(3-(4-(6-((4-(((R)-1-(3-Bromophenyl)ethyl)amino)-6-methoxy-2-methyl-quinazolin-7-yl)oxy)hexyl)piperazin-1-yl)propyl)-6-fluoro-1-oxoisoindolin-2-yl)piperidine-2,6-dione], the concentration for half-maximal inhibition (IC50) with SW48 cells (wt) is 1000 nM; in the test on AsPC-1 cells (G12D), 1400 nM; with Lovo cells (G13D) it was 520 nM; in the test with SW480 cells (G12V), 480 nM; in the test with H358 cells (G12C), 890 nM.

Take `CN[C@@H](C)C(=O)N[C@H](C(=O)N1CCC[C@H]1c1nc(C(=O)c2cccc(OCCCCCCCCCCOc3cc4nc(C)nc(N[C@H](C)c5cccc(Br)c5)c4cc3OC)c2)cs1)C1CCCCC1` [Compound B3, (S)—N—((S)-2-((S)-2-(4-(3-((10-((4-(((R)-1-(3-Bromophenyl)ethyl)amino)-6-methoxy-2-methylquinazolin-7-yl)oxy)decyl)oxy)benzoyl)thiazol-2-yl)pyrrolidin-1-yl)-1-cyclohexyl-2-oxoethyl)-2-(methylamino)propanamide]: the IC50 in the test on SW48 cells (wt) was 4700 nM; with AsPC-1 cells (G12D) it was 5000 nM; with Lovo cells (G13D), 1400 nM; in the test with SW480 cells (G12V), 2300 nM; with H358 cells (G12C), 2200 nM.

On to `CN[C@@H](C)C(=O)N[C@H](C(=O)N1C[C@@H](NC(=O)CCCCCCCCOc2cc3nc(C)nc(N[C@H](C)c4cccc(Br)c4)c3cc2OC)C[C@H]1C(=O)N[C@@H]1CCCc2ccccc21)C1CCCCC1` [Compound B12, (2S,4S)-4-(9-((4-(((R)-1-(3-Bromophenyl)ethyl)amino)-6-methoxy-2-methyl-quinazolin-7-yl)oxy)nonanamido)-1-((S)-2-cyclohexyl-2-((S)-2-(methylamino)propanamido)-acetyl)-N—((R)-1,2,3,4-tetrahydronaphthalen-1-yl)pyrrolidine-2-carboxamide], for which the 50% inhibitory concentration (IC50) stood at 460 nM with SW48 cells (wt); 2700 nM with AsPC-1 cells (G12D); 800 nM in the test with Lovo cells (G13D); 450 nM in the test with SW480 cells (G12V); 1100 nM in the test on H358 cells (G12C).

As for `COc1cc2c(N[C@H](C)c3cccc(Br)c3)nc(C)nc2cc1OCCCCCCCNc1cccc2nc(C)n(C3CCC(=O)NC3=O)c(=O)c12` (stereo partly drawn) [Compound A47, 3-(5-((7-((4-(((R)-1-(3-Bromophenyl)ethyl)amino)-6-methoxy-2-methyl-quinazolin-7-yl)oxy)heptyl)amino)-2-methyl-4-oxoquinazolin-3(4H)-yl)piperidine-2,6-dione], the IC50 in the test with SW48 cells (wt) is 1400 nM; in the test with AsPC-1 cells (G12D), 3700 nM; with Lovo cells (G13D), 910 nM; in the test on SW480 cells (G12V), 740 nM; in the test with H358 cells (G12C) it was 3000 nM.

Consider `COc1cc2c(N[C@H](C)c3cccc(Br)c3)nc(C)nc2cc1OCCCCCC(=O)N(C)Cc1scc2c1CN(C1CCC(=O)NC1=O)C2=O` (stereo partly drawn) [Compound A63, 6-((4-(((R)-1-(3-Bromophenyl)ethyl)amino)-6-methoxy-2-methylquinazolin-7-yl)oxy)-N-((5-(2,6-dioxopiperidin-3-yl)-4-oxo-5,6-dihydro-4H-thieno[3,4-c]pyrrol-1-yl)methyl)-N-methylhexanamide], for which the half-inhibitory concentration (IC50) is 20 nM in the test on SW48 cells (wt); 3500 nM with AsPC-1 cells (G12D); < 14 nM in the test with Lovo cells (G13D); 650 nM in the test on SW480 cells (G12V); 130 nM in the test on H358 cells (G12C).

In the case of `COc1cc2c(N[C@H](C)c3cccc(Br)c3)nc(C)nc2cc1OCCCCN1CCN(C(=O)CNc2cc3c(cc2F)C(=O)N(C2CCC(=O)NC2=O)C3)CC1` (stereo partly drawn) [Compound A30, 3-(5-((2-(4-(4-((4-(((R)-1-(3-Bromophenyl)ethyl)amino)-6-methoxy-2-methyl-quinazolin-7-yl)oxy)butyl)piperazin-1-yl)-2-oxoethyl)amino)-6-fluoro-1-oxoisoindolin-2-yl)-piperidine-2,6-dione], the IC50 stood at 640 nM in the test with SW48 cells (wt); 7800 nM in the test with AsPC-1 cells (G12D); 40 nM in the test with Lovo cells (G13D); 3900 nM with SW480 cells (G12V); 4200 nM in the test on H358 cells (G12C).

For the compound `CN[C@@H](C)C(=O)N[C@H](C(=O)N1C[C@@H](NC(=O)CCCCCCCCCCOc2cc3nc(C)nc(N[C@H](C)c4cccc(Br)c4)c3cc2OC)C[C@H]1C(=O)N[C@@H]1CCCc2ccccc21)C1CCCCC1` [Compound B11, (2S,4S)-4-(11-((4-(((R)-1-(3-Bromophenyl)ethyl)amino)-6-methoxy-2-methyl-quinazolin-7-yl)oxy)undecanamido)-1-((S)-2-cyclohexyl-2-((S)-2-(methylamino)propanamido)-acetyl)-N—((R)-1,2,3,4-tetrahydronaphthalen-1-yl)pyrrolidine-2-carboxamide], the half-maximal inhibitory concentration (IC50) was 530 nM in the test on SW48 cells (wt); 960 nM in the test on AsPC-1 cells (G12D); 390 nM with Lovo cells (G13D); 360 nM with SW480 cells (G12V); 530 nM in the test with H358 cells (G12C).

As to `CN[C@@H](C)C(=O)N[C@H](C(=O)N1CCC[C@H]1c1nc(C(=O)c2cccc(OCCCCCCCCCCCCOc3cc4nc(C)nc(N[C@H](C)c5cccc(Br)c5)c4cc3OC)c2)cs1)C1CCCCC1` [Compound B4, (S)—N—((S)-2-((S)-2-(4-(3-((12-((4-(((R)-1-(3-Bromophenyl)ethyl)amino)-6-methoxy-2-methylquinazolin-7-yl)oxy)dodecyl)oxy)benzoyl)thiazol-2-yl)pyrrolidin-1-yl)-1-cyclohexyl-2-oxoethyl)-2-(methylamino)propanamide], the IC50 is > 10000 nM with SW48 cells (wt); > 10000 nM in the test with AsPC-1 cells (G12D); 4000 nM in the test with Lovo cells (G13D); > 10000 nM in the test with SW480 cells (G12V); 7600 nM in the test with H358 cells (G12C).

`COc1cc2c(N[C@H](C)c3cccc(Br)c3)nc(C)nc2cc1OCCCCCN1CCN(C(=O)CNc2cc3c(cc2F)C(=O)N(C2CCC(=O)NC2=O)C3)CC1` (stereo partly drawn) [Compound A32, 3-(5-((2-(4-(5-((4-(((R)-1-(3-Bromophenyl)ethyl)amino)-6-methoxy-2-methyl-quinazolin-7-yl)oxy)pentyl)piperazin-1-yl)-2-oxoethyl)amino)-6-fluoro-1-oxoisoindolin-2-yl)-piperidine-2,6-dione]: the IC50 was 470 nM in the test on SW48 cells (wt); > 10000 nM in the test on AsPC-1 cells (G12D); 60 nM in the test on Lovo cells (G13D); 4400 nM in the test with SW480 cells (G12V); > 10000 nM in the test with H358 cells (G12C).
